Assay [1] concerns corpus circular muscle preparations. As to the kind of experiment: Motility: contractile force of corpus circular muscle preparations in organ bath. The assay is classed as cell-based, guinea pig.
Assay [2] relates to distal colon mucosa/submucosa preparations. Description: Ussing chamber: short circuit current (chloride ion secretion) across colonic mucosa/submucosa preparations. The assay is classed as cell-based, guinea pig.

Entries after “also recorded” stand apart in the source; their conditions may differ.

`CN1[C@@H]2CC[C@H]1C[C@@H](OC(=O)C(CO)c1ccccc1)C2` (stereo partly drawn) [atropine]: the “Effect of atropine pre-treatment on muscle contraction stimulated by ACH and extracts” value in assay [1] is listed as “completely abrogated stimulation; also recorded: completely abolished”. For the same compound, in assay [2], the “Effect of atropine applied mucosally on secretion stimulated by ACH applied serosally” value is reported as “secretion was inhibited”; the “Effect of atropine applied on mucosal side on secretion stimulated from the mucosal side” value is given as “only partially inhibiting ACH activity; also recorded: not mucosally”; the “Effect of atropine applied on serosal side on secretion stimulated from the mucosal side” value is reported as “significantly inhibited; also recorded: completely abrogated secretion”; the “Effect of atropine pre-treatment on secretion stimulated by ACH and extracts” value is reported as “completely abolished the response; also recorded: completely abrogated secretion stimulation”.

Turning to `NC1=N[C@H](O)[C@H]2[C@H]3O[C@]4(O)O[C@@H]([C@@H](O)[C@@]2(N1)[C@@H]4O)[C@]3(O)CO` [TTX, Tetrodotoxin], in assay [1], the “Effect of TTX pre-treatment on muscle contraction stimulated by ACH and extracts” value is recorded as “no significant effect”.

The values are drawn from US10912818B2, “Use of microorganisms for the prevention and treatment of intestinal diseases” (Ludwig Stocker Hofpfisterei GmbH, priority 2013, dated 2021).
